Source: US12617837B2, “Composition for use in treatment of allergic diseases” (UNIVERSITY OF TSUKUBA, priority 2019, dated 2026)

Columns and labels:
Clec10a-Fc = molecular target: T1, Clec10a-Fc (Mus musculus, UniProt P49300); assay: Sugar conjugate (glycan) microarray analysis of Clec10a-Fc (Table 7); format: binding; conditions: for Signal value, Clec10a-Fc: glycan microarray probed with Clec10a-Fc; for Signal value, Clec10a-Fc with EDTA: glycan microarray probed with Clec10a-Fc with EDTA
T1 construct: cloning the extracellular region of mouse Clec10a into a pME18S expression vector; made in house; host or cells: HEK293T cells
T1 sequence (P49300 57-304 limits assumed): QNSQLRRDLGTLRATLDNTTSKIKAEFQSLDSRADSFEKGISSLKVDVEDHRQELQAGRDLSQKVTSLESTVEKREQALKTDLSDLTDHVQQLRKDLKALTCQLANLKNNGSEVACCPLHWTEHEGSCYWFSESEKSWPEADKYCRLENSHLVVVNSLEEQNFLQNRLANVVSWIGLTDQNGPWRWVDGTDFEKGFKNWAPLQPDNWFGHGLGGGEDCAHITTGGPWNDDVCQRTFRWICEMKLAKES
Method: A sugar conjugate microarray containing 98 sugar conjugates (Table 3) was prepared according to a known method using a non-contact microarray printing robot (MicroSys 4000; Genomic Solutions).

human IgG1 = assay: Glycan microarray probed with human IgG1 (control of Table 7); format: binding

Row | Compound | Signal value, Clec10a-Fc (Clec10a-Fc) | Signal value, Clec10a-Fc with EDTA (Clec10a-Fc) | Signal value, human IgG1 (human IgG1)
1 | CC(=O)N[C@@H]1[C@@H](O)[C@H](O[C@@H]2O[C@H](CO)[C@H](O)[C@H](O[C@]3(C(=O)O)C[C@H](O)[C@@H](NC(C)=O)[C@H]([C@H](O)[C@H](O)CO)O3)[C@H]2O)[C@@H](CO)O[C@H]1O [3′SLN] | 7 | 0 | 0
2 | CC(=O)N[C@H]1[C@H]([C@H](O)[C@H](O)CO)O[C@@](O[C@H]2[C@@H](O)[C@@H](CO)O[C@@H](O[C@H]3[C@H](O)[C@@H](O)[C@H](O)O[C@@H]3CO)[C@@H]2O)(C(=O)O)C[C@@H]1O [3′SL] | 5 | 0 | 0
3 | CC(=O)N[C@@H]1[C@@H](O[C@@H]2O[C@H](CO)[C@H](O)[C@H](O[C@]3(C(=O)O)C[C@H](O)[C@@H](NC(C)=O)[C@H]([C@H](O)[C@H](O)CO)O3)[C@H]2O)[C@H](O)[C@@H](CO)O[C@H]1O [3′SiaLec] | 4 | 0 | 0
4 | CC(=O)N[C@H]1[C@H]([C@H](O)[C@H](O)CO)O[C@@](OC[C@H]2O[C@@H](O[C@H]3[C@H](O)[C@@H](O)[C@H](O)O[C@@H]3CO)[C@H](O)[C@@H](O)[C@H]2O)(C(=O)O)C[C@@H]1O [6′SL] | 1 | 0 | 0
5 | CC(=O)N[C@H]1[C@@H](O[C@@H]2[C@@H](O)[C@H](O)O[C@H](CO)[C@@H]2O)O[C@H](CO)[C@H](O)[C@@H]1O [A-di] | 1137 | 0 | 0
6 | CC(=O)N[C@@H]1[C@@H](O)[C@H](O[C@@H]2O[C@H](CO)[C@H](O)[C@H](O[C@H]3O[C@H](CO)[C@H](O)[C@H](O)[C@H]3NC(C)=O)[C@H]2O[C@@H]2O[C@@H](C)[C@@H](O)[C@@H](O)[C@@H]2O)[C@@H](CO)O[C@H]1O [A] | 0 | 0 | 0
7 | CC(=O)N[C@@H]1[C@@H](O)[C@H](O)[C@@H](CO)O[C@H]1O [BGlcNAc] | 0 | 0 | 205
8 | CC(=O)N[C@@H]1[C@@H](O)[C@H](O[C@@H]2O[C@H](CO)[C@H](O)[C@H](O[C@H]3O[C@H](CO)[C@H](O)[C@H](O)[C@H]3O)[C@H]2O[C@@H]2O[C@@H](C)[C@@H](O)[C@@H](O)[C@@H]2O)[C@@H](CO)O[C@H]1O [B] | 0 | 0 | 0
9 | CC(=O)N[C@@H]1[C@@H](O[C@@H]2O[C@H](CO)[C@H](O)[C@H](O)[C@H]2O)[C@@H](O)[C@@H](CO[C@@H]2O[C@H](CO)[C@@H](O)[C@H](O)[C@H]2NC(C)=O)O[C@@H]1O [Core2] | 4824 | 0 | 0
10 | CC(=O)N[C@@H]1[C@@H](O[C@@H]2O[C@H](CO)[C@@H](O)[C@H](O)[C@H]2NC(C)=O)[C@@H](O)[C@@H](CO)O[C@@H]1O [Core3] | 0 | 0 | 0
11 | CC(=O)N[C@@H]1[C@@H](O[C@@H]2O[C@H](CO)[C@@H](O)[C@H](O)[C@H]2NC(C)=O)[C@@H](O)[C@@H](CO[C@@H]2O[C@H](CO)[C@@H](O)[C@H](O)[C@H]2NC(C)=O)O[C@@H]1O [Core4] | 0 | 0 | 0
12 | CC(=O)N[C@@H]1[C@@H](O[C@H]2O[C@H](CO)[C@H](O)[C@H](O)[C@H]2O)[C@@H](O)[C@@H](CO)O[C@@H]1O [Core8] | 0 | 0 | 0
13 | CC(=O)N[C@@H]1[C@@H](O[C@H]2O[C@H](CO)[C@H](O)[C@H](O)[C@H]2NC(C)=O)[C@@H](O)[C@@H](CO)O[C@H]1O [Forssman disaccharide] | 0 | 0 | 0
14 | C[C@@H]1O[C@@H](O[C@@H]2[C@@H](O)[C@@H](O)[C@@H](CO)O[C@H]2O)[C@@H](O)[C@H](O)[C@@H]1O [Fucα2Gal] | 0 | 0 | 0
15 | CC(=O)N[C@@H]1[C@@H](O[C@@H]2O[C@@H](C)[C@@H](O)[C@@H](O)[C@@H]2O)[C@H](O)[C@@H](CO)O[C@H]1O [Fucα3GlcNAc] | 0 | 0 | 0
16 | CC(=O)N[C@@H]1[C@@H](O)[C@H](O[C@@H]2O[C@@H](C)[C@@H](O)[C@@H](O)[C@@H]2O)[C@@H](CO)O[C@H]1O [Fucα4GlcNAc] | 0 | 0 | 0
17 | OC[C@H]1O[C@H](O[C@H]2C(O)O[C@H](CO)[C@H](O)[C@@H]2O)[C@H](O)[C@@H](O)[C@H]1O (stereo partly drawn) [Galα1-2Gal] | 3 | 0 | 0
18 | OC[C@H]1O[C@H](O[C@@H]2[C@@H](O)[C@H](O)O[C@H](CO)[C@@H]2O)[C@H](O)[C@@H](O)[C@H]1O [Galα1-3Gal] | 144 | 0 | 0
19 | CC(=O)N[C@H]1[C@H](O[C@@H]2[C@H](O)[C@@H](O)[C@H](O[C@H]3[C@H](O)[C@@H](O)[C@H](O)O[C@@H]3CO)O[C@@H]2CO)O[C@H](CO)[C@H](O)[C@@H]1O [Gα2] | 0 | 0 | 0
20 | CC(=O)N[C@@H]1[C@@H](O[C@@H]2O[C@H](CO)[C@H](O)[C@H](O)[C@H]2O[C@@H]2O[C@@H](C)[C@@H](O)[C@@H](O)[C@@H]2O)[C@H](O)[C@@H](CO)O[C@H]1O [H type1] | 1 | 0 | 0
21 | CC(=O)N[C@@H]1[C@@H](O)[C@H](O[C@@H]2O[C@H](CO)[C@H](O)[C@H](O)[C@H]2O[C@@H]2O[C@@H](C)[C@@H](O)[C@@H](O)[C@@H]2O)[C@@H](CO)O[C@H]1O [H type2] | 0 | 0 | 0
22 | CC(=O)N[C@@H]1[C@@H](O)[C@H](O[C@@H]2O[C@H](CO)[C@H](O)[C@H](O)[C@H]2NC(C)=O)[C@@H](CO)O[C@H]1O [LDN] | 0 | 0 | 0
23 | CC(=O)N[C@@H]1[C@@H](O)[C@H](O[C@@H]2O[C@H](CO)[C@H](O)[C@H](O)[C@H]2O)[C@@H](CO)O[C@H]1O [LN] | 7 | 0 | 0
24 | OC[C@H]1O[C@@H](O[C@H]2[C@H](O)[C@@H](O)[C@H](O)O[C@@H]2CO)[C@H](O)[C@@H](O)[C@H]1O [Lac] | 4850 | 0 | 0
25 | CC(=O)N[C@@H]1[C@@H](O[C@@H]2O[C@H](CO)[C@H](O)[C@H](O)[C@H]2O[C@@H]2O[C@@H](C)[C@@H](O)[C@@H](O)[C@@H]2O)[C@H](O[C@@H]2O[C@@H](C)[C@@H](O)[C@@H](O)[C@@H]2O)[C@@H](CO)O[C@H]1O [Leb] | 0 | 0 | 0
26 | CC(=O)N[C@@H]1[C@@H](O[C@@H]2O[C@H](CO)[C@H](O)[C@H](O)[C@H]2O)[C@H](O)[C@@H](CO)O[C@H]1O [Lec] | 2414 | 0 | 0
27 | OC[C@H]1O[C@H](O[C@H]2[C@H](O)[C@@H](O)[C@H](O)O[C@@H]2CO)[C@H](O)[C@@H](O)[C@@H]1O [Maltose] | 0 | 1 | 0
28 | OC[C@H]1O[C@H](OCC2O[C@@H](O)[C@H](O)[C@@H](O)[C@@H]2O)[C@H](O)[C@@H](O)[C@H]1O (stereo partly drawn) [Melibiose] | 45 | 0 | 0
29 | CC(=O)N[C@H]1[C@H]([C@H](O)[C@H](O)CO)O[C@@](O)(C(=O)O)C[C@@H]1O [Ne̊u5Ac] | 0 | 0 | 0
